Data published in patent US10456359B2, “Synergistic beverage composition” (Harsha Chigurupati, priority 2015, dated 2019).
Where a SMILES comes first, the peptide text is derived from it.

How the values were obtained:
[1] = tested on: serum C-reactive protein (CRP); assay: CNS/immunology study, serum CRP, alcohol 5 days; type: in vivo, Wistar albino rats; details: Pro: Protection (%), rats, alcohol 5 Day
Excerpt: (§1) For hangover, 1 day immunology parameter were considered and for CNS, 5 days immunology parameter were considered.

interleukin-12 (IL-12) [2] = assay: Hangover study, serum IL-12, alcohol 1 day; type: in vivo, Wistar albino rats; set-up: concentration or dose not given beside the values; details: 1 Day alcohol
Excerpt: as §1

[3] = tested on: Monocyte chemoattractant protein-1 (MCP-1) from brain homogenate; assay: Hangover study, MCP-1 from brain homogenate, alcohol 1 day; type: in vivo, Wistar albino rats; details: 1 Day alcohol
[4] = tested on: spatial learning and memory; assay: Morris water maze task (escape latency), alcohol 5 days; type: in vivo, Wistar albino rats; details: Pro: Protection (%), rats, alcohol 5 day
[5] = tested on: acetylcholinesterase activity of brain homogenate; details: Hangover study, 1 Day alcohol; ingredient amounts in mass concentration (%)
Experimental: (§4) We have included this parameter to evaluate cognition and memory deficit in experimental animals.
(§5) Experimental Design • (b) Animal study model 1: Saline/Alcohol (4.0 gm/kg/day, p.o.)/Formulation with alcohol (4.0 gm/kg/day, p.o.) were administered (fed orally by orogastric cannula) for one day. 12-16 hours after the dose the animals were sacrificed and blood samples will be collected for estimation of biochemical parameters. Whole brain without cerebellum were dissected out, 10% homogenate was prepared with 0.1 M PB (pH 7.4). The homogenate solution was centrifuged at 10000 rpm for 20 minutes at 4° C. and the supernatant was used for estimation of acetylcholinesterase activity, which was estimated by Ellman's method (Ellman G L et al. A new and rapid colorimetric determination of acetylcholinesterase activity. Biochem Pharmacol, 1961, 7:88.) • (c) Animal study model 2: Saline/Alcohol (4.0 gm/kg/day, p.o.)/Formulation with alcohol (4.0 gm/kg/day, p.o.) were administered (fed orally by orogastric cannula) for 5 consecutive days. 12-16 hours after the last dose, the animals were sacrificed and blood samples were collected for estimation of biochemical parameters. Whole brain without cerebellum were dissected out, 10% homogenate was prepared with 0.1 M PB (pH 7.4). The homogenate solution was centrifuged at 10000 rpm for 20 minutes at 4° C. and the supernatant was used for estimation of acetylcholinesterase activity. […] The latency period of day 5 (before alcohol) was compared with post alcohol latency period (Vorhees C V and Williams M T. Morris water maze: procedures for assessing spatial and related forms of learning and memory, Nat Protoc, 2006, 1(2): 848-58.). % Protection Calculated in Above Experiments: % Protection=1−[(T−NS)/(AL−NS)]×100 T=Mean value of drug treated, NS=Mean value of normal control, AL=Mean value of alcohol alone.
(§6) Male Wistar albino rats weighing 150-200 g were procured and randomly divided into groups consisting of twelve (12) animals in each group. Alcohol induced hangover and CNS related biochemical changes and memory function in rats by oral administration of 30% alcohol (4 gm/kg/day, p.o.) for 1 and 5 days and this group served as the negative control and treated groups received different formulation.
(§7) All drug solutions were prepared in 40% aqueous alcohol, adjusting the pH in the range of 5.0-10.0 for evaluation of alcohol induced hangover and CNS related biochemical parameters.

[6] = tested on: alkaline phosphatase (ALP); details: Pro: Protection (%); rats, alcohol 4 gm/kg/day p.o., 5 days, serum
Experimental: The levels of alanine aminotransferase (ALT), aspartate aminotransferase (AST) and alkaline phosphatise (ALP) in serum were measured using commercial spectrophotometric kit bought from Span Diagnostic Ltd. (www.span.in) according to the manufacturer's protocols.
12-16 hours after the last dose, the animals were sacrificed and blood samples were collected for estimation of biochemical parameters.
Male Wistar albino rats weighing 150-200 g were procured and randomly divided into groups consisting of twelve (12) animals in each group. Hepatoprotection was induced by alcohol in rats by oral administration of 30% alcohol (4 gm/kg/day, p.o.) for 5 days and this group served as the negative control and treated groups received different formulation.
All drug solutions were prepared in 40% aqueous alcohol, adjusting the pH in the range of 5.0-10.0 for evaluation of alcohol induced Hepatoprotection. This solution was further diluted with distilled water to obtain 30% aqueous alcoholic solution and administered orally by gavage to different rats group of step (a).

[7] = tested on: serum alanine aminotransferase (ALT); assay: Hepatoprotection study, serum ALT, alcohol 5 days; type: in vivo, Wistar albino rats; details: Pro: Protection (%), rats, alcohol 4 gm/kg/day p.o.
[8] = tested on: aspartate aminotransferase (AST); assay: Hepatoprotection study, serum AST, alcohol 5 days; type: in vivo, Wistar albino rats; details: Pro: Protection (%), rats, alcohol 4 gm/kg/day p.o.
[9] = tested on: Monocyte chemoattractant protein-1 (MCP-1); assay: CNS/immunology study, serum MCP-1, alcohol 5 days; type: in vivo, Wistar albino rats; details: Pro: Protection (%), rats, alcohol 5 Day
Experimental: (§2) The lowest detectable limit of the kit is 0.1 ng/ml (Wang L, Li Y, Chen J, et al. “Ischemic Cerebral Tissue and MCP-1 Enhance Rat Bone Marrow Stromal Cell Migration in Interface Culture.” Experimental Hematology, 30, 7, 2002, 831-836).
as §1

[10] = tested on: interleukin-12 (IL-12) from brain homogenate; assay: Hangover study, IL-12 from brain homogenate, alcohol 1 day; type: in vivo, Wistar albino rats; set-up: concentration or dose not given beside the values; details: 1 Day alcohol
[11] = tested on: interleukin-12 (IL-12) from brain homogenate; assay: CNS study, IL-12 from brain homogenate, alcohol 5 days; type: in vivo, Wistar albino rats; details: rats, alcohol 5 Day; for Brain IL12 Pro: Pro: Protection (%)
Interferon gamma (IFN-γ) [12] = assay: CNS/immunology study, serum IFN-gamma, alcohol 5 days; type: in vivo, Wistar albino rats; details: Pro: Protection (%), rats, alcohol 5 Day
Excerpt: (§3) Distilled ethanol was obtained from Bengal Chemicals, West Bengal, India. Biochemical kits like AST, ALT, ALP and total protein were obtained from Span Diagnostics Ltd. Surat, India. Rat IL-12 ELISA kit (Elabscience Biotechnology Co. Ltd, WuHan, P.R.C.), Rat CRP ELISA kit (BD Biosciences, USA), Rat IFN-gamma ELISA kit (Biolegend, San Diego, Calif.) Rat MCP-1 ELISA kit (Elabscience Biotechnology Co. Ltd, WuHan, P.R.C.). All the chemicals used in the present study were of analytical grade and obtained from the following companies: Sigma (St. Louis, Mo., USA), Merck (Mumbai, India), S D fine chemicals (Mumbai, India) and Qualigen (Mumbai, India).
as §1

interleukin-12 (IL-12) [13] = assay: CNS/immunology study, serum IL-12, alcohol 5 days; type: in vivo, Wistar albino rats; details: Pro: Protection (%), rats, alcohol 5 Day
Excerpt: as §1

[14] = tested on: serum C-reactive protein (CRP); assay: Hangover study, serum CRP, alcohol 1 day; type: in vivo, Wistar albino rats; details: 1 Day alcohol
Excerpt: as §1

[15] = tested on: Monocyte chemoattractant protein-1 (MCP-1); assay: Hangover study, serum MCP-1, alcohol 1 day; type: in vivo, Wistar albino rats; set-up: concentration or dose not given beside the values; details: 1 Day alcohol
Experimental: as §2, §1

[16] = tested on: acetylcholinesterase activity of brain homogenate; details: Pro: Protection (%), rats, alcohol 5 Day
Experimental: as §4, §5, §6, §7

[17] = tested on: Monocyte chemoattractant protein-1 (MCP-1) from brain homogenate; assay: CNS study, MCP-1 from brain homogenate, alcohol 5 days; type: in vivo, Wistar albino rats; details: rats, alcohol 5 Day; for Brain MCP-1 Pro: Pro: Protection (%)
Interferon gamma (IFN-γ) [18] = assay: Hangover study, serum IFN-gamma, alcohol 1 day; type: in vivo, Wistar albino rats; set-up: concentration or dose not given beside the values; details: 1 Day alcohol
Excerpt: as §3, §1

serum ALT, AST and ALP = assay: Hepatoprotection study overall (rise of serum ALT, AST and ALP), 5 alcohol doses; type: in vivo, Wistar albino rats; details: 5 alcohol doses of 4 gm/kg per oral

| Compound | CRP Pro [1] [%] | IL12 Pro (Protection) (interleukin-12 (IL-12) [2]) [%] | Brain MCP-1 Pro (Protection) [3] [%] | WATER MAZE Pro [4] [%] | ACHe Pro (Protection) [5] [%] | ALP Pro [6] [%] | ALT Pro [7] [%] | AST Pro [8] [%] | MCP-1 Pro [9] [%] | Brain IL12 Pro (Protection) [10] [%] | Brain IL12 Pro [11] [%] | IFN-Gamma Pro (Interferon gamma (IFN-γ) [12]) [%] | IL12 Pro (interleukin-12 (IL-12) [13]) [%] | CRP Pro (Protection) [14] [%] | MCP-1 Pro (Protection) [15] [%] | ACHe Pro [16] [%] | Brain MCP-1 Pro [17] [%] | IFN-Gamma Pro (Protection) (Interferon gamma (IFN-γ) [18]) [%] | other results |
| --- | --- | --- | --- | --- | --- | --- | --- | --- | --- | --- | --- | --- | --- | --- | --- | --- | --- | --- | --- |
| C[C@H](N)C(=O)N[C@@H](CCC(N)=O)C(=O)O [0.75 DP, L-Ala-L-Gln] (H-Ala-Gln-OH) | 3.78 | 14.84 | 10.14 | 13.15 | 8.94 | 12.24 | 5.28 | 9.14 | 0.75 | 7.14 | 7.01 | 5.62 | 13.88 | 15.93 | 5.25 | 6.73 | 9.63 | 6.38 | – |
| CC1(C(=O)O)CCC2(C)CCC3(C)C(=CC(=O)C4C5(C)CCC(OC6OC(C(=O)O)C(O)C(O)C6OC6OC(C(=O)O)C(O)C(O)C6O)C(C)(C)C5CCC43C)C2C1 (stereo not drawn) [0.04 GA, 18β-GA] | 2.37 | 1.05 | 1.15 | 1.58 | 0.59 | 2.78 | 0.89 | 2.18 | 3.38 | 1.09 | 1.28 | 1.07 | 3.08 | 2.04 | 0.6 | 1.43 | 1.58 | 1.25 | – |
| CC1(C(=O)O)CCC2(C)CCC3(C)C(=CC(=O)C4C5(C)CCC(OC6OC(C(=O)O)C(O)C(O)C6OC6OC(C(=O)O)C(O)C(O)C6O)C(C)(C)C5CCC43C)C2C1 (stereo not drawn) [0.1 GA, 18β-GA] | 5.19 | 2.6 | 4.25 | 5.32 | 11.79 | 6.29 | 4.24 | 8.25 | 0 | 3.16 | 3.66 | 0 | 5.85 | 5.15 | 3.79 | 9.4 | 3.58 | 2.58 | – |
| OC[C@@H](O)[C@@H](O)[C@H](O)[C@H](O)CO [Mannitol, D-Mannitol] | – | – | – | – | – | – | – | – | – | – | – | – | – | – | – | – | – | – | degree of protection (serum ALT, AST and ALP; individual ingredient at 0.5 to […]): 10-38% |
| CC1(C(=O)O)CCC2(C)CCC3(C)C(=CC(=O)C4C5(C)CCC(OC6OC(C(=O)O)C(O)C(O)C6OC6OC(C(=O)O)C(O)C(O)C6O)C(C)(C)C5CCC43C)C2C1 (stereo not drawn) [0.04a GA, 18α-GA] | 0.1 | 0.1 | 0.1 | 2.1 | 0.1 | 1.08 | 1.26 | 2.24 | 0.1 | 0.1 | 0.1 | 0.1 | 0.1 | 0.1 | 0.1 | 0.1 | 0.1 | 0.1 | – |
| C[C@H](N)C(=O)N[C@@H](CCC(N)=O)C(=O)O [L-alanine-L-glutamine (DP), L-alanyl-L-glutamine] (H-Ala-Gln-OH) | – | – | – | – | – | – | – | – | – | – | – | – | – | – | – | – | – | – | degree of protection (serum ALT, AST and ALP; dose level of 0.5 to 1.0%): mild effect; degree of protection (serum ALT, AST and ALP; higher doses (2.0 to 3.0%)): high degree of protection |
| CC1(C(=O)O)CCC2(C)CCC3(C)C(=CC(=O)C4C5(C)CCC(OC6OC(C(=O)O)C(O)C(O)C6OC6OC(C(=O)O)C(O)C(O)C6O)C(C)(C)C5CCC43C)C2C1 (stereo not drawn) [GA, 18-beta-Glycyrrhizin] | – | – | – | – | – | – | – | – | – | – | – | – | – | – | – | – | – | – | degree of protection (serum ALT, AST and ALP; GA as such at 0.04-0.3%): 5-25% |
| C[C@H](N)C(=O)N[C@@H](CCC(N)=O)C(=O)O [0.5 DP, L-Ala-L-Gln] (H-Ala-Gln-OH) | 6.13 | 0.54 | 4.59 | 5.18 | 4.33 | 6.95 | 9.13 | 5.86 | 0.1 | 3.69 | 2.35 | 3.32 | 2.64 | 4.05 | 4.33 | 4.33 | 5.12 | 2.58 | – |
| C/C=C/C=C/C(=O)[O-].[K+] [0.1 KS, Potassium Sorbate] | 0.87 | 0.89 | 0.19 | 1.31 | 0.24 | 0 | 0.11 | 0.09 | 1.04 | 0.24 | 0.00 | 0 | 1.2 | 1.2 | 0.16 | 0 | 0 | 0.11 | Brain IL12 Syn ([11]; Syn: Synergism (%)): 0%; Brain MCP-1 Syn ([17]; Syn: Synergism (%)): 0% |
